Assay results as given in patent publication US4220644A, “7-Acylamino-3-(substituted tetrazolyl thiomethyl) cephalosporins” (SmithKline Corporation, priority 1976, dated 1980).
≈ marks a conversion by molar mass, not a printed value. Like-named read-outs stand apart in the source and are kept apart here.

Tests used:
[1] = tested on: Entero. aerog. ATCC 13048; experiment: MIC in vitro (Table 1), Entero. aerog. ATCC 13048; assay type: cell-based
From the text: (§1) Compound names corresponding to numbers are given in the experimental section. For comparative purposes, data for cephamandole, which is 7-mandelamido-3-(1-methyltetrazol-5-ylthiomethyl)-3-cephem-4-carboxylic acid, is also given in Tables 1 and 2.

Kleb. pneumo. SK 1200 = experiment: MIC in vitro (Table 1), Kleb. pneumo. SK 1200; assay type: cell-based
From the text: as §1

Salmonella ATCC 12176 = experiment: MIC in vitro (Table 1), Salmonella ATCC 12176; assay type: cell-based
From the text: as §1, with “The compounds of Formula I have antibacterial activity against both Gram-positive and Gram-negative organisms. […] Compound” for “Compound”

Shigella HH 117 = experiment: MIC in vitro (Table 1), Shigella HH 117; assay type: cell-based
From the text: as §1, with “The compounds of Formula I have antibacterial activity against both Gram-positive and Gram-negative organisms. […] Compound” for “Compound”

Serra. Marc. ATCC 13880 = experiment: MIC in vitro (Table 1), Serra. Marc. ATCC 13880; assay type: cell-based; conditions: in vitro, Serra. Marc. ATCC 13880
From the text: as §1

S. villaluz = experiment: MIC in vitro (Table 1), S. villaluz; assay type: cell-based
From the text: as §1, with “The compounds of Formula I have antibacterial activity against both Gram-positive and Gram-negative organisms. […] Compound” for “Compound”

E. coli HH 33779 = experiment: MIC in vitro (Table 1), E. coli HH 33779; assay type: cell-based
From the text: as §1

S. aureus HH 127 = experiment: MIC in vitro (Table 1), S. aureus HH 127; assay type: cell-based; conditions: S. aureus HH 127
From the text: as §1

S. aureus SK 23390 = experiment: MIC in vitro (Table 1), S. aureus SK 23390; assay type: cell-based
From the text: as §1

Proteus morgani 179 = experiment: MIC in vitro (Table 1), Proteus morgani 179; assay type: cell-based
From the text: as §1

E. coli SK 12140 = experiment: MIC in vitro (Table 1), E. coli SK 12140; assay type: cell-based
From the text: as §1

Strep. Faecalis HH 34358 = experiment: MIC in vitro (Table 1), Strep. Faecalis HH 34358; assay type: cell-based; conditions: in vitro, Strep. Faecalis HH 34358
From the text: as §1

Entero. cloacae HH 31254 = experiment: MIC in vitro (Table 1), Entero. cloacae HH 31254; assay type: cell-based
From the text: as §1

Kleb. pneumo. SK 4200 = experiment: MIC in vitro (Table 1), Kleb. pneumo. SK 4200; assay type: cell-based
From the text: as §1

Kleb. pneumo. 4200 = experiment: In vivo mouse protection (Table 2), Kleb. pneumo. 4200
From the text: as §1

E. coli 12140 = experiment: In vivo mouse protection (Table 2), E. coli 12140
From the text: as §1

Pseudo. sp. HH 63 = experiment: MIC in vitro (Table 1), Pseudo. sp. HH 63; assay type: cell-based; conditions: in vitro, Pseudo. sp. HH 63; read-out: MIC
From the text: as §1, with “The compounds of Formula I have antibacterial activity against both Gram-positive and Gram-negative organisms. […] Compound” for “Compound”

[2] = Escherichia coli, 12140, po, E. coli 12140, p.o.
[3] = Escherichia coli, 12140, sc, E. coli 12140, s.c.
[4] = Salmonella, ATCC12176, in vitro, read-out: MIC
[5] = Shigella, HH117, in vitro, read-out: MIC
[6] = Staphylococcus aureus, HH127, in vitro, read-out: MIC
[7] = Enterococcus faecalis, read-out: MIC
[8] = in vitro, Entero. aerog. ATCC 13048, read-out: MIC
[9] = Escherichia coli, HH33779, in vitro, E. coli HH 33779, read-out: MIC
[10] = Escherichia coli, SK12140, in vitro, read-out: MIC
[11] = Enterobacter cloacae, HH31254, in vitro, Entero. cloacae HH 31254, read-out: MIC
[12] = in vitro, Kleb. pneumo. SK 4200, read-out: MIC

Compound	MIC (Kleb. pneumo. SK 1200) [µg/mL]	MIC (Salmonella ATCC 12176; in vitro) [µg/mL]	MIC (Shigella HH 117; in vitro) [µg/mL]	MIC (S. aureus SK 23390; in vitro, S. aureus SK 23390) [µg/mL]	MIC (Proteus morgani 179) [µg/mL]	MIC [1] [µg/mL]	ED50 (Kleb. pneumo. 4200; po, Kleb. pneumo. 4200, p.o.) [mg/kg]	ED50 (Kleb. pneumo. 4200; sc, Kleb. pneumo. 4200, s.c.) [mg/kg]	ED50 (E. coli 12140; [2]) [mg/kg]	ED50 (E. coli 12140; [3]) [mg/kg]	MIC (Salmonella ATCC 12176; [4]) [µg/mL]	MIC (Shigella HH 117; [5]) [µg/mL]	MIC (Serra. Marc. ATCC 13880; read-out: MIC) [µg/mL]	MIC (S. aureus HH 127; [6]) [µg/mL]	MIC (S. aureus SK 23390; Staphylococcus aureus, SK23390) [µg/mL]	MIC (Strep. Faecalis HH 34358; [7]) [µg/mL]	MIC (Entero. cloacae HH 31254; Enterobacter cloacae, HH31254) [µg/mL]	MIC (Pseudo. sp. HH 63) [µg/mL]	MIC (E. coli HH 33779; [9]) [µg/mL]	MIC (E. coli SK 12140; [10]) [µg/mL]	also measured
7-(α-Carboxythienylacetamido)-3-(1-carboxymethyltetrazol-5-ylthiomethyl)-3-cephem-4-carboxylic acid [XIX]	6	25	6	50	6																MIC ([1]; in vitro, Entero. aerog. ATCC 13048): 50 µg/mL; MIC (Serra. Marc. ATCC 13880): 50 µg/mL; MIC (S. villaluz): 100 µg/mL; MIC (E. coli HH 33779; in vitro, E. coli HH 33779): 50 µg/mL; MIC (S. aureus HH 127; in vitro): 50 µg/mL; MIC (E. coli SK 12140; in vitro): 25 µg/mL; MIC (Strep. Faecalis HH 34358): 200 µg/mL; MIC (Entero. cloacae HH 31254; in vitro, Entero. cloacae HH 31254): 50 µg/mL; MIC (Kleb. pneumo. SK 4200; in vitro, Kleb. pneumo. SK 4200): 50 µg/mL
CNC(=O)Cn1nnnc1SCC1=C(C(=O)O)N2C(=O)C(NC(=O)[C@H](O)c3ccccc3)[C@H]2SC1 (stereo partly drawn) [III, 7-D-Mandelamido-3-(1-N-methylcarbamoylmethyltetrazol-5-ylthiomethyl)-3-cephem-4-carboxylic acid]	3.1 (≈ 5.97 µM)				3.1 (≈ 5.97 µM)	3.1 (≈ 5.97 µM)	> 50	2.8	34	1.56	0.8 (≈ 1.54 µM)	3.1 (≈ 5.97 µM)	25 (≈ 48.1 µM)	1.6 (≈ 3.08 µM)	3.1 (≈ 5.97 µM)	25 (≈ 48.1 µM)	3.1 (≈ 5.97 µM)	> 200			MIC (E. coli HH 33779; Escherichia coli, HH33779): 3.1 µg/mL (≈ 5.97 µM); MIC (E. coli SK 12140; Escherichia coli, SK12140, in vitro): 3.1 µg/mL (≈ 5.97 µM); MIC (Kleb. pneumo. SK 4200): 3.1 µg/mL (≈ 5.97 µM)
CN(C)C(=O)Cn1nnnc1SCC1=C(C(=O)O)N2C(=O)C(NC(=O)[C@H](O)c3ccccc3)C2SC1 (stereo partly drawn) [IV, 7-D-Mandelamido-3-(1-N,N-dimethylcarbamoylmethyltetrazol-5-ylthiomethyl)-3-cephem-4-carboxylic acid]							168	7.5	168	2.5	3.1 (≈ 5.81 µM)	0.8 (≈ 1.5 µM)	100 (≈ 187 µM)	1.6 (≈ 3 µM)	0.8 (≈ 1.5 µM)	25 (≈ 46.9 µM)		> 200	6.3 (≈ 11.8 µM)	3.1 (≈ 5.81 µM)	MIC [1, 8]: 6.3 µg/mL (≈ 11.8 µM); MIC (Kleb. pneumo. SK 1200; read-out: MIC): 1.6 µg/mL (≈ 3 µM); MIC (S. villaluz; read-out: MIC): 50 µg/mL (≈ 93.7 µM); MIC (Entero. cloacae HH 31254; [11]): 1.6 µg/mL (≈ 3 µM); MIC (Kleb. pneumo. SK 4200; [12]): 3.1 µg/mL (≈ 5.81 µM)
CN(C)C(=O)Cn1nnnc1SCC1=C(C(=O)O)N2C(=O)C(NC(=O)[C@H](N)c3ccc(O)cc3)C2SC1 (stereo partly drawn) [IX, 7-(D-α-Amino-4-hydroxyphenylacetamido)-3-(1-N,N-dimethylcarbamoylmethyltetrazol-5-ylthiomethyl)-3-cephem-4-carboxylic acid]	6.3 (≈ 11.5 µM)					12.5 (≈ 22.8 µM)	18	3.7	28.5	1.56	3.1 (≈ 5.65 µM)	6.3 (≈ 11.5 µM)	200 (≈ 365 µM)	12.5 (≈ 22.8 µM)	6.3 (≈ 11.5 µM)	25 (≈ 45.6 µM)	3.1 (≈ 5.65 µM)	> 200	12.5 (≈ 22.8 µM)	12.5 (≈ 22.8 µM)	MIC (Proteus morgani 179; read-out: MIC): 100 µg/mL (≈ 182 µM); MIC (Kleb. pneumo. SK 4200): 6.3 µg/mL (≈ 11.5 µM)
NC(=O)Cn1nnnc1SCC1=C(C(=O)O)N2C(=O)C(NC(=O)[C@H](O)c3ccccc3)[C@H]2SC1 (stereo partly drawn) [V, 7-D-Mandelamido-3-(1-carbamoylmethyltetrazol-5-ylthiomethyl)-3-cephem-4-carboxylic acid]	0.4 (≈ 0.791 µM)	0.4 (≈ 0.791 µM)	0.4 (≈ 0.791 µM)	1.6 (≈ 3.16 µM)	1.6 (≈ 3.16 µM)		21.2	1.3	50	1.56	0.8 (≈ 1.58 µM)	0.2 (≈ 0.396 µM)	12.5 (≈ 24.7 µM)	1.6 (≈ 3.16 µM)		25 (≈ 49.5 µM)	0.4 (≈ 0.791 µM)	> 200	1.6 (≈ 3.16 µM)	0.8 (≈ 1.58 µM)	MIC [1, 8]: 1.6 µg/mL (≈ 3.16 µM); MIC (Kleb. pneumo. SK 1200; read-out: MIC): 0.8 µg/mL (≈ 1.58 µM); MIC (S. villaluz; read-out: MIC): 25 µg/mL (≈ 49.5 µM); MIC (S. aureus SK 23390; Staphylococcus aureus, SK23390, in vitro, S. aureus SK 23390, read-out: MIC): 3.1 µg/mL (≈ 6.13 µM); MIC (Proteus morgani 179; read-out: MIC): 3.1 µg/mL (≈ 6.13 µM); MIC (Entero. cloacae HH 31254; [11]): 0.8 µg/mL (≈ 1.58 µM); MIC (Kleb. pneumo. SK 4200; [12]): 1.6 µg/mL (≈ 3.16 µM)
